For eight compounds, activity and IC50 results are on record in patent US20250002526A1, “PHARMACEUTICAL COMPOSITION HAVING ANTI-CANCER IMMUNOSTIMULATING EFFECT AND/OR IMMUNE CHECKPOINT INHIBITION POTENTIATING EFFECT” (KYUSHU UNIVERSITY, NATIONAL UNIVERSITY CORPORATION, priority 2021, published 2025).

The test system of assay [1] is SULT2B1b-mediated CS production in E0771-SULT cells. As to the kind of experiment: CS production inhibitory effect in E0771-SULT cells (LC/MS/MS quantification of CS). In kind it is cell-based, mouse. The settings on record: Mus musculus; for activity at 10 µM: relative to control (100%); for activity at 20 µM: relative to control without compound (100%); for pIC50: read-out: IC50 value (CS production); for activity at 1 µM: compound groups B-D. Here is the method:
CS in each human cancer tissue sample was quantified by a method described in NPL 2. To monitor the amounts of CS and/or oxysterol generated in E0771, 3LL, EG.7-OVA, and MC38 cells irrespective of the presence or absence of SULT2B1b expression, cells of each type were seeded in a 6-well plate at 5×10^5 cells/well, and the culture supernatant and cell pellet were collected after 24 hours. Subsequently, deuterium-labeled internal standard (IS) compounds (d7-CS [[…]] and d6-25-hydroxycholesterol) were added to fractions of the culture supernatant and cell pellet, each of which was subjected to extraction with 1 mL of extraction solvent (methanol/chloroform/water=5:2:2 [v/v/v]) to extract CS and oxysterol from the culture supernatant or cell pellet.
Each sample was vigorously mixed with a vortex for 1 minute, and then ultrasonicated for 5 minutes. Thereafter, the sample was centrifuged at 16,000×g and 4° C. for 5 minutes, and the supernatant (700 μl) was collected in a clean tube. Into this, 235 μl of chloroform and 155 μl of water were added and mixed, and the resultant was then subjected to vortexing followed by centrifugation to separate into an aqueous layer and an organic layer. Subsequently, 200 μl of the lowermost layer was dried under a nitrogen flow.
The dried sample was dissolved in 50 μl of methanol, and CS and oxysterol therein were quantified by liquid chromatography-tandem mass spectrometry (LC/MS/MS) with a triple quadrupole mass spectrometer (LCMS-8060; Shimadzu Corporation) equipped with an electrospray ionization (ESI) ion source in a multiple reaction monitoring (MRM) mode.
• Column: Inertsil ODS-4 (2.1×150 mm; particle size: 3 μm; GL Sciences Inc.) • Column temperature: 40° C. • Flow rate: 0.3 ml/min • Mobile phase: (A) water/acetonitrile (1:2, v/v) containing 5 mM ammonium acetate (B) Methanol/Isopropanol (1:19, v/v) Containing 5 mM Ammonium Acetate • Gradient curve: 0 min→22 min: (B) 0%→100%, • 22 min→27 min: (B) 100%, • 27 min→27.1 min: (B) 100%→0%, • 27.1 min→30 min: (B) 0% • Injection volume: 5 μl • Mass spectrometry mode: positive and negative ion modes • Electrospray voltage: 4 kV in positive ion mode, −3.5 kV in negative ion mode • Nebulizer gas flow rate: 3.0 L/min • Drying gas flow rate: 10.0 L/min • Desolvation temperature: 250° C. • Heat block temperature: 400° C. • Detector voltage: 2.16 kV • Used were MRM mode and 2 msec of dwell time per channel.
Absolute CS and oxysterol contents were calculated from calibration curves. MRM calibration curves were prepared with chromatographic peak areas for the analytes relative to peak areas for internal standards through three times of analysis for standard solutions.
The CS production effects of test compounds (compounds 1 to 19, 21, 23, 25, and 27 to 32) were evaluated with the mouse breast cancer cell line E0771 expressing SULT2B1b (E0771-SULT cells).
Specifically, as in the above description in experimental procedure (12), E0771-SULT cells were seeded in a 6-well plate at a proportion of 5×10^5 cells/well, and cultured in the presence or absence (control) of each test compound for 24 hours. After culturing, CS generated in E0771-SULT cells was quantified by LC/MS/MS according to the description in experimental procedure (12). The CS production capacity (% activity) of cells cultured in the presence of each test compound was evaluated from the percentage relative to the CS production level (control) (100%) in E0771-SULT cells cultured in the absence of the test compound, and the CS production inhibitory effect of the test compound was evaluated.

The target in assay [2] is T1, recombinant human SULT2B1b protein (Homo sapiens, UniProt O00204).
T1 sequence (O00204 1-365): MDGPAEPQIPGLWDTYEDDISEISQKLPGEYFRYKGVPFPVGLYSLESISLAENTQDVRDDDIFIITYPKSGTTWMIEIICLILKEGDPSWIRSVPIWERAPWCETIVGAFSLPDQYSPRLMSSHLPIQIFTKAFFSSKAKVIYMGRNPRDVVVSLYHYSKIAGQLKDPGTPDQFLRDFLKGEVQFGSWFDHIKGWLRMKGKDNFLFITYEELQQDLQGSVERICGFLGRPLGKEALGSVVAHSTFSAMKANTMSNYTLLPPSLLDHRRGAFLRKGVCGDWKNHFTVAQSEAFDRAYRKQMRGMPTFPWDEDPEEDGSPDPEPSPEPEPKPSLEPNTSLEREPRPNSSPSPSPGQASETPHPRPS
As to the kind of experiment: SULT assay (in vitro SULT2B1b enzymatic activity measurement). In kind it is biochemical. The note with it: read-out: in vitro SULT2B1b assay % activity at 200 μM. Here is the method: For screening for a SULT2B1b inhibitor, enzymatic activity measurement for SULT2B1b was carried out by a method described in a previous report (NPL 2) with slight modifications.
The reaction solution (50 μl) was composed of 1 to 5 μg of recombinant human SULT2B1b protein, 10 μM [^3H]cholesterol (approximately 4,000 dpm/pmol), 10 mM Tris-HCl (pH 7.5, containing 5 mM MgCl2) containing 0.1 mM 3′-phosphoadenosine 5′-phosphosulfate (PAPS), 0.2 mM 2-hydroxypropyl-β-cyclodextrin, and 5% (v/v) ethanol. Recombinant human SULT2B1b protein was pre-incubated with 1 μl of a test compound (final concentration: 40 or 200 μM) or DMSO (control) at room temperature for 15 minutes, 2 mM PAPS (2.5 μl) was then added to initiate reaction, the resultant was reacted at 37° C. for 15 minutes, and 0.8 ml of ethanol was added to terminate the reaction.
The solution after the reaction was subjected to thin-layer chromatography (TLC) for separation, and then to a liquid scintillation counter to quantify radiolabeled CS.
From the percentage to the amount ([…]) of radiolabeled CS generated through reaction in the absence of the test compound (DMSO) (control), the SULT2B1b activity (% activity) of SULT2B1b protein in the presence of the test compound was evaluated, and the effect of the test compound to inhibit SULT2B1b-mediated CS production (CS production inhibitory effect) was evaluated.
In enzyme assay, SULT assay was performed with use of cholenoic acid as a compound to be tested at different cholesterol and PAPS concentrations (wherein 0.5 to 1 μg of recombinant human SULT2B1b protein was used, the preincubation time and reaction time were each 10 minutes), and the results were fitted to the Michaelis-Menten equation by using Prism 9 (GraphPad Software, Inc.) to perform enzyme kinetic analysis for the inhibition by cholenoic acid.
SULT assay was performed for the compounds as test compounds by the method described in (14) of “II. Experimental procedure” in Experiment Example 1 to evaluate the SULT2B1b inhibitory effects of the compounds.

[3] abbreviates: 24 h, read-out: CS production % activity at 10 μM, E0771-SULT cells, 24 hours, test compound 10 μM (Table 1).
[4] abbreviates: 24 h, read-out: CS production % activity at 10 μM, E0771-SULT cells, 24 hours, third concentration column of Table 1, head again printed 10 μM.
The mark [5] stands for this setting: 24 h, read-out: CS production % activity at 20 μM, E0771-SULT cells, 24 hours, test compound 20 μM.
Where [6] appears, read: 24 h, E0771-SULT cells, 24 hours, test compound 20 μM, read-out: CS production % activity at 20 μM.
Where [7] appears, read: 24 h, E0771-SULT cells, 24 hours, read-out: CS production % activity at 1 μM.
Where [8] appears, read: E0771-SULT cells, 24 hours, test compound 20 μM, read-out: CS production % activity at 20 μM.
[9] abbreviates: E0771-SULT cells, 24 hours, read-out: CS production % activity at 1 μM.

SMILES strings stand for the structures. pIC50: −log10 of the molar value. Like-named read-outs stand apart in the source and are kept apart here.

As for `COC(=O)CC[C@@H](C)[C@H]1CC[C@H]2[C@@H]3CC=C4C[C@@H](O)CC[C@]4(C)[C@H]3CC[C@]12C` [Compound 3, methyl (R)-4-((3S,8S,9S,10R,13R,14S,17R)-3-hydroxy-10,13-dimethyl-2,3,4,7,8,9,10,11,12,13,14,15,16,17-tetradecahydro-1H-cyclopenta[a]phenanthren-17-yl)pentanoate], the activity at 10 µM amounted to 48.1% in assay [1] (setting [3]) and 61.4% in assay [1] (setting [4]). Further, the activity at 20 µM in assay [1] (setting [5]) came out at 56.8%. Besides, the pIC50 in assay [1] was 4.76. Further, the activity at 200 µM in assay [2] is 19%.

For the compound `COC(=O)CC[C@@H](C)[C@H]1CC[C@H]2[C@@H]3CC=C4C[C@@H](OC(=O)C(F)(F)F)CC[C@]4(C)[C@H]3CC[C@]12C` [Compound 4, methyl (R)-4-((3S,8S,9S,10R,13R,14S,17R)-10,13-dimethyl-3-(2,2,2-trifluoroacetoxy)-2,3,4,7,8,9,10,11,12,13,14,15,16,17-tetradecahydro-1H-cyclopenta[a]phenanthren-17-yl)pentanoate], the activity at 10 µM came out at 79.2% in assay [1] (24 h, E0771-SULT cells, 24 hours, test compound 10 μM (Table 1), read-out: CS production % activity at 10 μM) and 104% in assay [1] (24 h, E0771-SULT cells, 24 hours, third concentration column of Table 1, head again printed 10 μM, read-out: CS production % activity at 10 μM). Further, the activity at 20 µM in assay [1] (setting [6]) was 49.9%. The pIC50 in assay [1] (E0771-SULT cells) is 4.70. The activity at 200 µM in assay [2] was 13.6%.

As for `CO[C@H]1CC[C@@]2(C)C(=CC[C@H]3[C@@H]4CC[C@H]([C@H](C)CCC(=O)O)[C@@]4(C)CC[C@@H]32)C1` [Compound 6, (R)-4-((3S,8S,9S,10R,13R,14S,17R)-3-methoxy-10,13-dimethyl-2,3,4,7,8,9,10,11,12,13,14,15,16,17-tetradecahydro-1H-cyclopenta[a]phenanthren-17-yl)pentanoic acid], the activity at 10 µM in assay [1] (setting [3]) was determined as 74.5%; in assay [1] (setting [4]), 80.7%. Moreover, the activity at 20 µM in assay [1] (setting [5]) was determined as 70.3%. For the same compound, the pIC50 in assay [1] is 4.49. Moreover, the activity at 200 µM in assay [2] (test compound 200 μM, relative to DMSO control (100%)) was 22.9%.

Take `C[C@]12CCC(OC(=O)CCN3CCOCC3)CC1=CC[C@@H]1[C@@H]2CC[C@]2(C)C(=O)CC[C@@H]12` (stereo partly drawn) [Compound 28, (8R,9S,10R,13S,14S)-10,13-dimethyl-17-oxo-2,3,4,7,8,9,10,11,12,13,14,15,16,17-tetradecahydro-1H-cyclopenta[a]phenanthren-3-yl 3-morpholinopropanoate]: the activity at 20 µM in assay [1] (setting [6]) turned out to be 42%. Also, in assay [1] (setting [7]), the activity at 1 µM is 37.8%. Further, the pIC50 in assay [1] (E0771-SULT cells) was 5.20.

Consider `C#C[C@]1(O)CC[C@H]2[C@@H]3CC=C4C[C@@H](O)CC[C@]4(C)[C@H]3CC[C@@]21C` [Compound 29, (3S,8R,9S,10R,13S,14S,17R)-17-ethynyl-10,13-dimethyl-2,3,4,7,8,9,10,11,12,13,14,15,16,17-tetradecahydro-1H-cyclopenta[a]phenanthrene-3,17-diol], for which, in assay [1] (24 h, read-out: CS production % activity at 1 μM, E0771-SULT cells, 24 hours), the activity at 1 µM amounted to 50.1%. For the same compound, the activity at 20 µM in assay [1] (setting [5]) stood at 45%. In addition, the pIC50 in assay [1] is 4.93.

On to `C#CC1(OC(C)=O)CCC2C3CCC4=CC(=O)CCC4C3CCC21C` (stereo not drawn) [Compound 30, 19-norethisterone-acetate, reference compound], for which the activity at 20 µM in assay [1] (setting [8]) was found to be 61.9%. Further, the activity at 1 µM in assay [1] (setting [9]) was 80.1%. The pIC50 in assay [1] (E0771-SULT cells) was 4.46.

As for `C#CC1(O)CCC2C3CCC4=CC(=O)CCC4C3CCC21C` (stereo not drawn) [Compound 31, 19-norethindrone, reference compound], the activity at 20 µM in assay [1] (setting [8]) amounted to 77.5%. For the same compound, the activity at 1 µM in assay [1] (setting [9]) is 82.8%. In addition, in assay [1] (E0771-SULT cells), the negative logarithm of the IC50 (pIC50) was 4.16.

`CC1(C2CC[C@H]3[C@@H]4CC=C5C[C@@H](O)CC[C@]5(C)[C@H]4CC[C@]23C)CS1` (stereo partly drawn) [Compound 32, (3S,8S,9S,10R,13S,14S)-10,13-dimethyl-17-(2-methylthiiran-2-yl)-2,3,4,7,8,9,10,11,12,13,14,15,16,17-tetradecahydro-1H-cyclopenta[a]phenanthren-3-ol]: the activity at 20 µM in assay [1] (setting [6]) stood at 54.8%. Also, in assay [1] (setting [7]), the activity at 1 µM stood at 49.7%. Also, in assay [1] (E0771-SULT cells), the pIC50 was 4.89.
